Literature values as cited in patent US10478452B2, “Antiviral pharmaceutical composition for topical use” (QUIMICA LUAR SRL, priority 2015, dated 2019).

Conditions: according to some studies

concentrations of intracellular triphosphate ganciclovir relative to those of acyclovir: approximately ten-fold higher
mean life of intracellular triphosphate: more than 24 hours
Compound: Nc1nc(O)c2ncn(COC(CO)CO)c2n1 [ganciclovir]
